Data as given in PubChem BioAssay AID1963960 (Molecular Pharmacology Branch, DTP, NCI, 2024).

Test system: MDA-MB-468 spheroids with HUVEC/MSC, viability
Assay: Anticancer human tumor MDA-MB-468 cell line growth inhibition [PI3K];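 also: spheroids exposed to agents for seven days before readout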;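 as to viability, T/C: 100% = DMSO vehicle control viability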
Details: for viability, T/C: stronger effect = lower value; active = viability on the fitted dose curve at most 10% of control; inactive = the rest
In short: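 Agents were dosed from a top concentration near clinical Cmax (otherwise 10 microM) in half-log decrements, alone or combined with PI3K inhibitors. The spheroids contain tumor cells plus endothelial (HUVEC) and MSC stroma; viability is measured.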

[1] = curve of first compound, second compound 0.0316 µM
[2] = curve of first compound, second compound 0.1 µM
[3] = curve of first compound, second compound 0.316 µM
[4] = curve of first compound, second compound 1 µM
[5] = second compound 0.0316 µM, first compound 0.0316 µM
[6] = second compound 0.0316 µM, first compound 0.1 µM
[7] = second compound 0.0316 µM, first compound 0.316 µM
[8] = second compound 0.0316 µM, first compound 1 µM
[9] = second compound 0.0316 µM, first compound 3.16 µM
[10] = second compound 0.0316 µM, first compound 10 µM
[11] = second compound 0.1 µM, first compound 0.0316 µM
[12] = second compound 0.1 µM, first compound 0.1 µM
[13] = second compound 0.1 µM, first compound 0.316 µM
[14] = second compound 0.1 µM, first compound 1 µM
[15] = second compound 0.1 µM, first compound 3.16 µM
[16] = second compound 0.1 µM, first compound 10 µM
[17] = second compound 0.316 µM, first compound 0.0316 µM
[18] = second compound 0.316 µM, first compound 0.1 µM
[19] = second compound 0.316 µM, first compound 0.316 µM
[20] = second compound 0.316 µM, first compound 1 µM
[21] = second compound 0.316 µM, first compound 3.16 µM
[22] = second compound 0.316 µM, first compound 10 µM
[23] = second compound 1 µM, first compound 0.0316 µM
[24] = second compound 1 µM, first compound 0.1 µM
[25] = second compound 1 µM, first compound 0.316 µM
[26] = second compound 1 µM, first compound 1 µM
[27] = second compound 1 µM, first compound 3.16 µM
[28] = second compound 1 µM, first compound 10 µM

C[C@@H](NC(=O)c1ncnc(N)c1Cl)c1ncc(C(=O)Nc2cc(C(F)(F)F)c(Cl)cn2)s1 + CC(Nc1ncnc2nc[nH]c12)c1cc2cccc(Cl)c2c(=O)n1-c1ccccc1
inactive: viability, T/C [5] 107% | viability, T/C [6] 114% | viability, T/C [7] 92.5% | viability, T/C [8] 109% | viability, T/C [9] 91.3% | viability, T/C [10] 94.9% | viability, T/C [11] 83% | viability, T/C [12] 94.3% | viability, T/C [13] 93.3% | viability, T/C [14] 89% | viability, T/C [15] 93.5% | viability, T/C [16] 83.7% | viability, T/C [17] 84.8% | viability, T/C [18] 76.8% | viability, T/C [19] 83.1% | viability, T/C [20] 82% | viability, T/C [21] 75.5% | viability, T/C [22] 83.7% | viability, T/C [23] 70% | viability, T/C [24] 65.8% | viability, T/C [25] 75.3% | viability, T/C [26] 81.8% | viability, T/C [27] 75.2% | viability, T/C [28] 64.5% | viability, T/C (second compound 3.16 µM, first compound 0.0316 µM) 61.8% | viability, T/C (second compound 3.16 µM, first compound 0.1 µM) 60.2% | viability, T/C (second compound 3.16 µM, first compound 0.316 µM) 63.7% | viability, T/C (second compound 3.16 µM, first compound 1 µM) 55.7% | viability, T/C (second compound 3.16 µM, first compound 3.16 µM) 61.8% | viability, T/C (second compound 3.16 µM, first compound 10 µM) 58.9% | viability, T/C (second compound 10 µM, first compound 0.0316 µM) 42.3% | viability, T/C (second compound 10 µM, first compound 0.1 µM) 40.6% | viability, T/C (second compound 10 µM, first compound 0.316 µM) 46.1% | viability, T/C (second compound 10 µM, first compound 1 µM) 53% | viability, T/C (second compound 10 µM, first compound 3.16 µM) 41.7% | viability, T/C (second compound 10 µM, first compound 10 µM) 39.2%
< 0.0316 µM: IC50 (curve of first compound, second compound 10 µM)
> 10 µM: IC50 [1] | IC50 [2] | IC50 [3] | IC50 [4] | IC50 (curve of first compound, second compound 3.16 µM)

CC(Cn1ccc(-c2ccc(C#N)c(Cl)c2)n1)NC(=O)c1cc(C(C)O)[nH]n1 (stereo not drawn) + CC(Nc1ccc2c(c1)OCCn1cc(N3C(=O)OCC3C(F)F)nc1-2)C(N)=O
> 10 µM: IC50 (curve of first compound, second compound 0.00316 µM) | IC50 (curve of first compound, second compound 0.01 µM) | IC50 [1] | IC50 [2] | IC50 [3] | IC50 [4]
inactive: viability, T/C (second compound 0.00316 µM, first compound 0.0316 µM) 104% | viability, T/C (second compound 0.00316 µM, first compound 0.1 µM) 84.3% | viability, T/C (second compound 0.00316 µM, first compound 0.316 µM) 107% | viability, T/C (second compound 0.00316 µM, first compound 1 µM) 99.4% | viability, T/C (second compound 0.00316 µM, first compound 3.16 µM) 101% | viability, T/C (second compound 0.00316 µM, first compound 10 µM) 88.6% | viability, T/C (second compound 0.01 µM, first compound 0.0316 µM) 102% | viability, T/C (second compound 0.01 µM, first compound 0.1 µM) 93.8% | viability, T/C (second compound 0.01 µM, first compound 0.316 µM) 79.3% | viability, T/C (second compound 0.01 µM, first compound 1 µM) 90% | viability, T/C (second compound 0.01 µM, first compound 3.16 µM) 94.6% | viability, T/C (second compound 0.01 µM, first compound 10 µM) 77.8% | viability, T/C [5] 101% | viability, T/C [6] 79.7% | viability, T/C [7] 92.5% | viability, T/C [8] 90% | viability, T/C [9] 88.4% | viability, T/C [10] 72.1% | viability, T/C [11] 114% | viability, T/C [12] 82.2% | viability, T/C [13] 80.4% | viability, T/C [14] 102% | viability, T/C [15] 94.8% | viability, T/C [16] 65% | viability, T/C [17] 88.5% | viability, T/C [18] 77.7% | viability, T/C [19] 96.1% | viability, T/C [20] 85.1% | viability, T/C [21] 69.9% | viability, T/C [22] 64.5% | viability, T/C [23] 93% | viability, T/C [24] 72.7% | viability, T/C [25] 89% | viability, T/C [26] 78.8% | viability, T/C [27] 66.5% | viability, T/C [28] 68%

C[C@@H](NC(=O)c1ncnc(N)c1Cl)c1ncc(C(=O)Nc2cc(C(F)(F)F)c(Cl)cn2)s1
inactive: viability, T/C (compound 0.0316 µM) 95.6% [middle of 4 runs] | viability, T/C (compound 0.1 µM) 102% [middle of 4 runs] | viability, T/C (compound 1 µM) 99.1% [middle of 4 runs]
> 10 µM: IC50 (curve of compound)
